Measured values taken from PubChem BioAssay (NCI).
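GI50 = concentration required for 50% inhibition of growth. TGI denotes the concentration required for complete inhibition of growth.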

Legend:
Assay in all cases: inhibition of tumour cell growth, NCI panel, 384-well format
[1] = system: ACHN renal
[2] = system: A549 NSCLC
[3] = system: OVCAR-4 ovarian
[4] = system: OVCAR-3 ovarian
[5] = system: MCF7 breast
[6] = system: HT29 colon
[7] = system: U251 glioblastoma
[8] = system: HOP-92 NSCLC
[9] = system: SF-539 CNS
[10] = system: NCI-H460 NSCLC
[11] = system: SNB-19 CNS
[12] = system: SN12C renal
[13] = system: DU-145 prostate
[14] = system: HOP-62 NSCLC
[15] = system: SK-MEL-2 melanoma
[16] = system: CCRF-CEM leukemia
[17] = system: 786-0 renal
[18] = system: HS 578T breast
[19] = system: HCT-15 colon
[20] = system: SK-OV-3 ovarian
[21] = system: UACC-62 melanoma
[22] = system: RPMI-8226 leukemia
[23] = system: HL-60(TB) leukemia
[24] = system: K-562 leukemia
[25] = system: MDA-MB-435 melanoma
[26] = system: T-47D breast
[27] = system: KM12 colon
[28] = system: OVCAR-5 ovarian
[29] = system: MOLT-4 leukemia
[30] = system: COLO 205 colon
[31] = system: SW-620 colon
[32] = system: UO-31 renal
[33] = system: A498 renal
[34] = system: CAKI-1 renal
[35] = system: PC-3 prostate
[36] = system: M14 melanoma
[37] = system: SK-MEL-5 melanoma
[38] = system: SR leukemia
[39] = system: SK-MEL-28 melanoma
[40] = system: NCI-H23 lung
[41] = system: SF-268 CNS
[42] = system: NCI-H226 lung
[43] = system: MALME-3M melanoma
[44] = system: EKVX NSCLC
[45] = system: OVCAR-8 ovarian
[46] = system: LOX IMVI melanoma
[47] = system: NCI-H522 lung

## COC(=O)c1ccc2c(C(=Nc3ccc(N(C)C(=O)CN4CCN(C)CC4)cc3)c3ccccc3)c(O)[nH]c2c1
[1]
  GI50: 1360 nM
  TGI: 2890 nM
[2]
  GI50: 1740 nM
  TGI: 3320 nM
[3]
  GI50: 1440 nM
  TGI: 2870 nM
[4]
  GI50: 1780 nM
  TGI: 3260 nM
[5]
  GI50: 1320 nM
  TGI: 2760 nM
[6]
  GI50: 1230 nM
  TGI: 2510 nM
[7]
  GI50: 1460 nM
  TGI: 2860 nM
[8]
  GI50: 950 nM
  TGI: 2600 nM
[9]
  GI50: 545 nM
  TGI: 1910 nM
[10]
  GI50: 1870 nM
  TGI: 3300 nM
[11]
  GI50: 1440 nM
  TGI: 4320 nM
[12]
  GI50: 1110 nM
  TGI: 2350 nM
[13]
  GI50: 1790 nM
  TGI: 3340 nM
[14]
  GI50: 1610 nM
  TGI: 3240 nM
[15]
  GI50: 1720 nM
  TGI: 3120 nM
[16]
  GI50: 1710 nM
  TGI: 3090 nM
[17]
  GI50: 1400 nM
  TGI: 2790 nM
[18]
  GI50: 1280 nM
  TGI: 2820 nM
[19]
  GI50: 1760 nM
  TGI: 3330 nM
[20]
  GI50: 1340 nM
  TGI: 2780 nM
[21]
  GI50: 1900 nM
  TGI: 3320 nM
[22]
  GI50: 1340 nM
  TGI: 2620 nM
[23]
  GI50: 2040 nM
  TGI: 3470 nM
[24]
  GI50: 137 nM
  TGI: 286 nM
[25]
  GI50: 1860 nM
  TGI: 3330 nM
[26]
  GI50: 1370 nM
  TGI: 2720 nM
[27]
  GI50: 47.5 nM
  TGI: 1330 nM
[28]
  GI50: 1300 nM
  TGI: 2690 nM
[29]
  GI50: 730 nM
  TGI: 2090 nM
[30]
  GI50: 1750 nM
  TGI: 3140 nM
[31]
  GI50: 1820 nM
  TGI: 3250 nM
[32]
  GI50: 1400 nM
  TGI: 2930 nM
[33]
  GI50: 1640 nM
  TGI: 3070 nM
[34]
  GI50: 1370 nM
  TGI: 2810 nM
[35]
  GI50: 2660 nM
  TGI: 10300 nM
[36]
  GI50: 1870 nM
  TGI: 3290 nM
[37]
  GI50: 2190 nM
  TGI: 3640 nM
[38]
  GI50: 734 nM
  TGI: 2020 nM
[39]
  GI50: 1690 nM
  TGI: 3080 nM
[40]
  GI50: 1790 nM
  TGI: 5170 nM
[41]
  GI50: 1560 nM
  TGI: 3100 nM
[42]
  GI50: 812 nM
  TGI: 2190 nM
[43]
  GI50: 1460 nM
  TGI: 2780 nM
[44]
  GI50: 2000 nM
  TGI: 3650 nM
[45]
  GI50: 1580 nM
  TGI: 2970 nM
[46]
  GI50: 2230 nM
  TGI: 3690 nM
[47]
  GI50: 750 nM
  TGI: 2040 nM
